Laboratory results as given in the supplement of paper PMC11821682.

How the values were obtained:
HL-60 = test: Cell Health Index (toxicity pseudo-probability over dose series) (index 0-1); higher = more cytotoxic / cell stress;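 note: HL-60 cells exposed 4 h at 37 °C to ten threefold dilutions spanning 5 nM to 100 µM, multiparametric flow cytometry features scored by machine-learning classification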
Danio rerio embryo = test: BMC10 any morphological effect or mortality at 120 hpf; higher = less toxic

| Structure (SMILES) | Cell Health Index (HL-60) | BMC10 any morphological effect or mortality (Danio rerio embryo) [µM] |
| --- | --- | --- |
| CC(C)(C)C#Cc1cc(N(C(=O)[C@H]2CC[C@H](C)CC2)[C@H]2CC[C@@H](O)CC2)c(C(=O)O)s1 [Lomibuvir] | 0.414 | > 100 |
| OC[C@H]1O[C@@H](O[C@H]2C(O)O[C@H](CO)[C@@H](O)[C@@H]2O)[C@H](O)[C@@H](O)[C@@H]1O (some centres not stated) [Sophorose] | 0.187 | > 100 |
| COc1cc2cc(Oc3ccc4ccc(=O)oc4c3)c(=O)oc2cc1O [Daphnoretin] | 0.178 | > 100 |
| CCCCc1nc(Cl)c(C=O)n1Cc1ccc(-c2ccccc2-c2nnn[nH]2)cc1 [Losartan carboxaldehyde] | 0.293 | > 100 |
| CC(=O)Oc1ccccc1C(=O)O [Aspirin] | 0.198 | > 100 |
| CCCN(CCC)S(=O)(=O)c1ccc(C(=O)O)cc1 [Probenecid] | 0.196 | > 100 |
| CC(C)Nc1cccnc1N1CCN(C(=O)c2cc3cc(NS(C)(=O)=O)ccc3[nH]2)CC1.CS(=O)(=O)O [Delavirdine] | 0.324 | > 100 |
| CC(C)C1=C2[C@H]3CC[C@@H]4[C@@]5(C)CC[C@H](OC(=O)CC(C)(C)C(=O)O)C(C)(C)[C@@H]5CC[C@@]4(C)[C@]3(C)CC[C@@]2([C@@H](O)CN(CCN(C)C)Cc2ccc(Cl)cc2)CC1=O | 0.422 | > 100 |
| O=c1[nH]cc(F)c(=O)[nH]1 [5-Fluorouracil] | 0.159 | > 100 |
| OCC1=C[C@@H](O)[C@@H]2C=CO[C@@H](O[C@@H]3O[C@H](CO)[C@@H](O)[C@H](O)[C@H]3O)[C@H]12 [Aucubin] | 0.304 | > 100 |
| NC(=O)c1nc(F)c[nH]c1=O [Favipiravir] | 0.248 | > 100 |
| C=C[C@H]1C[C@@]1(NC(=O)[C@@H]1C[C@@H]2CN1C(=O)[C@H](C(C)(C)C)NC(=O)O[C@@H]1C[C@H]1CCCCCc1nc3ccc(OC)cc3nc1O2)C(=O)NS(=O)(=O)C1CC1 [Grazoprevir] | 0.532 | > 100 |
| Cl.NCCc1ccc(S(=O)(=O)F)cc1 [AEBSF] | 0.32 | > 100 |
| CC(C)CN(C[C@@H](OP(=O)([O-])[O-])[C@H](Cc1ccccc1)NC(=O)O[C@H]1CCOC1)S(=O)(=O)c1ccc(N)cc1.[Ca+2] [Fosamprenavir] | 0.242 | > 100 |
| Cc1cccc(C)c1OCC(=O)N[C@@H](Cc1ccccc1)[C@@H](O)C[C@H](Cc1ccccc1)NC(=O)[C@H](C(C)C)N1CCCNC1=O [Lopinavir] | 0.752 | > 100 |
| CC(=O)N[C@@H]([C@@H](O)[C@H](O)[C@H](O)CO)[C@@H](O)CC(=O)C(=O)O [Aceneuramic acid] | 0.172 | > 100 |
| O=C(O)CCCCCCCCCCCCCCCCCCCO [20-hydroxy Arachidic acid] | 0.215 | > 100 |
| Cc1cccc(C)c1N(CC(=O)Nc1ccc(-c2ncon2)cc1)C(=O)C1CCS(=O)(=O)CC1 [Amenamevir] | 0.215 | > 100 |

| Structure (SMILES) | Cell Health Index (HL-60) | BMC10 any morphological effect or mortality (Danio rerio embryo) [µM] |
| --- | --- | --- |
| CCNCc1nc2c(N)nc3ccccc3c2n1CC(C)(C)O [Gardiquimod] | 0.172 | > 100 |
| Nc1ccn(C[C@@H](CO)OCP(=O)(O)O)c(=O)n1 [Cidofovir] | 0.144 | > 100 |
| COc1ncnc(NS(=O)(=O)c2ccc(N)cc2)c1OC [Sulfadoxin] | 0.201 | > 100 |
| CO[C@H]1[C@H](O)[C@@H](O)[C@@H](O)[C@H](O)[C@@H]1O [D-Pinitol] | 0.174 | > 100 |
| O=C(/C=C/c1ccc(O)c(O)c1)O[C@H]1[C@H](O)C[C@](O)(C(=O)O)C[C@H]1OC(=O)/C=C/c1ccc(O)c(O)c1 [4,5-Dicaffeoylquinic acid] | 0.542 | > 100 |
| O=c1cc(-c2ccccc2)oc2c(O)c(O)ccc12 [7,8-Dihydroxyflavone] | 0.507 | > 100 |
| O=C(O)c1cc(O)c2c(c1)[C@H]([C@H]1c3cc(C(=O)O)cc(O)c3C(=O)c3c(O[C@@H]4O[C@H](CO)[C@@H](O)[C@H](O)[C@H]4O)cccc31)c1cccc(O[C@@H]3O[C@H](CO)[C@@H](O)[C@H](O)[C@H]3O)c1C2=O [Sennoside A] | 0.422 | > 100 |
| C[C@H]1[C@H](C)CC[C@]2(C(=O)O)CC[C@]3(C)C(=CC[C@@H]4[C@@]5(C)C[C@@H](O)[C@H](O)[C@@](C)(CO)[C@@H]5CC[C@]43C)[C@H]12 [Asiatic acid] | 0.478 | > 100 |
| CCC[C@H](NC(=O)[C@@H]1[C@H]2CCC[C@H]2CN1C(=O)[C@@H](NC(=O)[C@@H](NC(=O)c1cnccn1)C1CCCCC1)C(C)(C)C)C(=O)C(=O)NC1CC1 [Telaprevir] | 0.402 | > 100 |
| O=C(/C=C/c1ccc(O)c(O)c1)O[C@@H]1C[C@](O)(C(=O)O)C[C@@H](OC(=O)/C=C/c2ccc(O)c(O)c2)[C@H]1O [3,5-Dicaffeoylquinic acid] | 0.614 | > 100 |
| Nc1nc(=O)c2c(CCc3ccc(C(=O)N[C@@H](CCC(=O)[O-])C(=O)[O-])cc3)c[nH]c2[nH]1.O.O.O.O.O.O.O.[Na+].[Na+] [Pemetrexed] | 0.15 | > 100 |
| CC(C)OC(=O)OCOP(=O)(CO[C@H](C)Cn1cnc2c(N)ncnc21)OCOC(=O)OC(C)C.O=C(O)/C=C/C(=O)O [Tenofovir Disoproxil] | 0.212 | > 100 |
| Cc1cn([C@@H]2C[C@@H](O)[C@H](CO)O2)c(=O)[nH]c1=O [Telbivudine] | 0.153 | > 100 |
| Nc1ccc(-c2nc3ccc(-c4nc5cc(N)ccc5[nH]4)cc3[nH]2)cc1 [Ro 90-7501] | 0.512 | > 100 |
| C[n+]1cccc(C(=O)O)c1.[Cl-] [Trigonelline] | 0.15 | > 100 |
| O=C(/C=C/c1ccccc1)NC(NC(=S)Nc1cccc2cccnc12)C(Cl)(Cl)Cl (configuration not stated) [Salubrinal] | 0.377 | > 100 |
| CO[C@@H]1[C@H](OC(=O)/C=C/C=C/C=C/C=C/C(=O)O)CC[C@]2(CO2)[C@H]1[C@@]1(C)O[C@@H]1CC=C(C)C [Fumagillin] | 0.187 | > 100 |
| Nc1nc(S)c2nc[nH]c2n1 [Thioguanine] | 0.294 | > 100 |
